Assay results reported in patent publication US20050084612A1, “Surface coating for microfluidic devices that incorporate a biopolymer resistant moiety” (Caliper Life Sciences, Inc., priority 1999, published 2005).

Target: T1, PTP1b (Homo sapiens, UniProt P18031)
T1 sequence (P18031 1-435): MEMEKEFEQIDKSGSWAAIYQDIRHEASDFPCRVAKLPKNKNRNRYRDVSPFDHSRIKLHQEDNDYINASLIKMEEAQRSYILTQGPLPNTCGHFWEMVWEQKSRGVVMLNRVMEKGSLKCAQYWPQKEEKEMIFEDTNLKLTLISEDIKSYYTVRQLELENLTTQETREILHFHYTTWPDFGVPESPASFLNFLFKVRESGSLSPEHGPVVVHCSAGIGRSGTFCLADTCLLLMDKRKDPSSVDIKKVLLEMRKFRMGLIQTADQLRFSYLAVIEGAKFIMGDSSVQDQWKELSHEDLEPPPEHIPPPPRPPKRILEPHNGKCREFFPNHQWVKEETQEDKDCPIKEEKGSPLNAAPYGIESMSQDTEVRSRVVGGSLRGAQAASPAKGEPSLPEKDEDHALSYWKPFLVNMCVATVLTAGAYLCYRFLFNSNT
Test: PTP1b/diFMUP Km measurement by substrate titration in microfluidic device
Assay type: biochemical
Settings: read-out: Km PTP1b/diFMUP; PEI-2 coated device, no NDSB, 50 mM HEPES+10 mM DTT
Procedure: A 0.1 mg/ml PTP1b solution (12 μl) was placed in well 8. […] The fluorescence signal is detected at the end of the main channel.
The first 5 steps are substrate-only titrations using well 2 and well 3, with buffer flow from well 1. These provide measurements of the substrate background signal. The next 5 steps are the same substrate titration steps, but with enzyme flowing from well 8. The difference between these signals and the substrate-only background signal is product signal. […] The final concentration of the substrate was calculated from the known well concentration and the ratio of currents as programmed in the script. Plotting 1/(product signal per unit time) vs. 1/(substrate concentration) yields the Lineweaver-Burk plot with Km equal to slope divided by the y-intercept.
The final substrate concentration was calculated from Equation 4.

## Cc1cc(=O)oc2c(F)c(OP(=O)(O)O)c(F)cc12 [diFMUP, di-6-a-difluoro-4-methylumbelliferyl phosphate]
  Km: 3 µM
